Test: Stability experiments using glutathione / S9-fraction
Assay type: in vitro ADME, human
Settings: 37° C., 1 h, radio-UPLC
Description: Radio-UPLC: For stability studies, an ultra-performance liquid chromatography (UPLC™, Waters) system, equipped with an Acquity UPLC BEH C18 column (1.7 μm, 2.1×50 mm, Waters) and a coincidence detector (FlowStar LB513, Berthold) was used with following solvent system: eluent A was a NaH2PO4/Na2HPO4 buffer (0.05 M, pH 7.4) and eluent B was acetonitrile. A gradient from 0-4.0 min 100%-40% A, at a flow rate of 0.6 ml/min was used.
Glutathione (0.1 M, 100 μl), S9-fraction (20 mg/ml, 50 μl) and KH2PO4/K2HPO4 buffer (pH 7.4, 0.5 M, 200 μl) were diluted with water (612 μl) to a volume of […] and [^18F]-3′-aza-2′-fluorofolic acid (38 μl, approx. 15 MBq) was added. The mixture was incubated at 37° C. At several time points aliquots (100 μl) were drawn and the reaction was stopped by pouring the sample into ice-cold methanol (200 μl). Each sample was diluted with NaH2PO4/Na2HPO4 buffer (pH 7.4, 0.05 M, 600 μl). Every time point was performed as duplicates and analyzed on a radio-UPLC system.

Structure (SMILES): Nc1nc2ncc(CNc3ccc(C(=O)N[C@@H](CCC(=O)O)C(=O)O)c([18F])n3)nc2c(=O)[nH]1 [3′-aza-2′-[^18F]fluorofolic acid]
- Stability with glutathione and S9-fraction: completely stable

Source: US10357576B2, “18F-labelled folate/antifolate analogues” (MERCK & CIE, priority 2012, dated 2019)
